≈ marks a conversion by molar mass, not a printed value. Read-outs that look alike come from different tables or passages of the source.
How the values were obtained:
[1] = tested on: Varicella-Zoster Virus (VZV); assay: microbe, parasite or virus in culture; assay type: cell-based; conditions: for EC50: Human alphaherpesvirus 3, HEL
Vaccinia virus [2] = assay: organism not typed; assay type: cell-based; conditions: for EC50: HEL
Cowpox virus (Brighton) [3] = assay: microbe, parasite or virus in culture; assay type: cell-based
Orf virus (NZ2) = assay: microbe, parasite or virus in culture; assay type: cell-based
[4] = tested on: Vaccinia virus (Western Reserve) and recombinant viruses harboring the A314T, A684V or A314T+A684V mutations; assay type: cell-based
[5] = tested on: herpes simplex virus type 2 (HSV-2); assay: microbe, parasite or virus in culture; assay type: cell-based; conditions: Human alphaherpesvirus 2, HEL, read-out: EC50 HSV-2 (G strain)
[6] = tested on: primate polyomavirus (SV40); assay: microbe, parasite or virus in culture; assay type: cell-based, simian polyomavirus SV40; conditions: Polyomavirus sp., BSC-1, in Primates
[7] = tested on: Molluscum contagiosum virus (MCV) clinical isolates; assay: microbe, parasite or virus in culture; assay type: cell-based; conditions: Keratinocyte
[8] = tested on: vaccinia virus (Lederle strain); assay: microbe, parasite or virus in culture; assay type: cell-based; conditions: Orthopoxvirus vaccinia, HEL
HSV-1 (Kos strain) = assay: microbe, parasite or virus in culture; assay type: cell-based, Herpes simplex virus type 1; conditions: Human alphaherpesvirus 1, HEL
HSV-1 (KOS) = tested on: HSV-1 (KOS); design: species or system mice; conditions: mouse, in vivo, sc
HSV-2 (Lyons) = tested on: HSV-2 (Lyons); design: species or system mice; conditions: mouse, in vivo, sc
Cowpox virus (Brighton) [9] = tested on: Cowpox virus (Brighton); design: species or system mice; conditions: mouse, in vivo, sc
Vaccinia Virus (WR) = assay type: in vivo, mice; conditions: after 20 days
SiHa cells (HPV-16) = assay: Human cervical carcinoma (SiHa) xenografts in athymic nude mice; assay type: in vivo; conditions: 5 weeks intratumoral treatment
Description: (§1) Adult animals were injected subcutaneously with 5×10^6 SiHa cells, a human cervical carcinoma cell line which harbors integrated human papillomavirus (HPV-16). Once the tumors were established (approximately after 1 week), the mice were divided in several groups, the tumor size for each mouse was determined, and treatment with placebo (PBS) or the test compounds was started. The test solutions were administered intratumorally at a volume of 50 μl. Mice were treated once a day, 5 times a week for a period of 5 weeks. Every week, the tumor size for each animal was measured with a caliper in two perpendicular dimensions and tumor size was calculated by multiplying the two measured diameters.
as §1, with “s.c.” for “subcutaneously”, “intratumorally (i.t.)” for “intratumorally”

[10] = tested on: human cervical carcinoma xenografts (HeLa, CaSki cells); assay: Human cervical carcinoma xenografts (HeLa, CaSki) in athymic nude mice, FIG. 12; assay type: in vivo; conditions: 5 and 10 mg/mL doses, intratumoral
Description: as §1, with “FIGS. 12 A and B show the activity of (S)-HPMP-5-azacytosine compared to (S)-HPMPC against human papillomavirus in human cervical carcinoma xenografts in athymic nude mice. (A) Adult” for “Adult”, “HeLa” for “SiHa”, “diameters. […] Once the tumors were established (approximately after 1 week), the mice were divided in several groups, the tumor size for each mouse was determined, and treatment with placebo (PBS) or the test compounds was started. […] Every week, the tumor size for each animal was measured with a caliper in two perpendicular dimensions and tumor size was calculated by multiplying the two measured diameters.” for “diameters.”

[11] = tested on: Herpes simplex virus-2 (G); assay type: cell-based
Vaccinia virus [12] = assay type: cell-based
Cowpox virus (Brighton) [13] = assay type: cell-based
HSB-2 cells = conditions: human
MOLT-3 cells = conditions: human
[14] = mouse, in vivo
in vitro [15] = conditions: mouse
in vitro [16] = conditions: human

SMILES: Nc1ncn(C[C@@H](CO)OCP(=O)(O)O)c(=O)n1 [Compound 3, (S)-1-[3-hydroxy-2-(Phosphonomethoxy)propyl]-5-azacytosine]
- activity against VZV (Oka, YS, YS-R and 07-1) in HEL cells [1]: significant activity
- EC50 ([1]; read-out: EC50 VZV 07/1 strain (HEL cells)): 0.019 µg/mL (≈ 0.0678 µM)
- EC50 ([1]; read-out: EC50 VZV OKA strain (HEL cells)): 0.027 µg/mL (≈ 0.0964 µM)
- EC50 ([1]; read-out: EC50 VZV YS strain (HEL cells)): 0.039 µg/mL (≈ 0.139 µM)
- EC50 ([1]; read-out: EC50 VZV YS-R strain (HEL cells)): 0.015 µg/mL (≈ 0.0535 µM)
- activity against Vaccinia virus (Lederle, Lister, W R and Copenhagen) in HEL cells (Vaccinia virus [2]): significant activity
- EC50 (Vaccinia virus [2]; read-out: EC50 Vaccinia Virus Lister): 1.69 µg/mL (≈ 6.03 µM)
- EC50 (Vaccinia virus [2]; Orthopoxvirus vaccinia, read-out: EC50 Vaccinia Virus Copenhagen): 2.26 µg/mL (≈ 8.07 µM)
- EC50 (Vaccinia virus [2]; Orthopoxvirus vaccinia, read-out: EC50 Vaccinia Virus Lederle): 1.7 µg/mL (≈ 6.07 µM)
- EC50 (Vaccinia virus [2]; Orthopoxvirus vaccinia, read-out: EC50 Vaccinia Virus WR): 2.45 µg/mL (≈ 8.74 µM)
- activity against Cowpox virus (Brighton) in HEL cells (Cowpox virus (Brighton) [3]): significant activity
- EC50 (Cowpox virus (Brighton) [3]; Cowpox virus, HEL, read-out: EC50 Cowpox virus Brighton): 4.72 µg/mL (≈ 16.8 µM)
- activity against Orf virus (NZ2) in HEL cells (Orf virus (NZ2)): significant activity
- EC50 (Orf virus (NZ2); Orf virus, HEL, read-out: EC50 Orf virus NZ2): 0.15 µg/mL (≈ 0.535 µM)
- EC50 Vaccinia virus (Western Reserve) wild-type [4]: 1.58 µg/mL (≈ 5.64 µM)
- EC50 recombinant vaccinia virus 314 + 684 [4]: 10.8 µg/mL
- EC50 recombinant vaccinia virus 684 [4]: 6.88 µg/mL
- EC50 recombinant vaccinia virus A314T [4]: 4.1 µg/mL
- EC50 [5]: 0.54 µg/mL (≈ 1.93 µM)
- EC50 ([6]; read-out: antiviral activity (EC50) SV40 PML-1 strain EK): 3.19 µg/mL (≈ 11.4 µM)
- EC50 ([6]; read-out: antiviral activity (EC50) SV40 PML-2 strain DAR): 3.81 µg/mL (≈ 13.6 µM)
- EC50 ([6]; read-out: antiviral activity (EC50) SV40 strain A2895): 3.22 µg/mL (≈ 11.5 µM)
- EC50 ([7]; read-out: EC50 MCV 06/02): 0.4 µg/mL (≈ 1.43 µM)
- EC50 ([7]; read-out: EC50 MCV 06/03): 0.23 µg/mL (≈ 0.821 µM)
- EC50 ([7]; read-out: EC50 MCV 06/04): 0.4 µg/mL (≈ 1.43 µM)
- EC50 ([7]; read-out: EC50 MCV 06/06): 1.26 µg/mL (≈ 4.5 µM)
- EC50 ([8]; 2 h, read-out: EC50 Vaccinia (Lederle strain), Treatment from 2 h till end of experiment): 2 µg/mL (≈ 7.14 µM)
- EC50 ([8]; read-out: EC50 Vaccinia (Lederle strain), Pretreatment (−16 hours)): 1.59 µg/mL (≈ 5.67 µM)
- EC50 ([8]; read-out: EC50 Vaccinia (Lederle strain), Treatment 2-4 hours): 5 µg/mL (≈ 17.8 µM)
- EC50 ([8]; read-out: EC50 Vaccinia (Lederle strain), Treatment 2-6 hours): 3.98 µg/mL (≈ 14.2 µM)
- EC50 ([8]; read-out: EC50 Vaccinia (Lederle strain), Treatment 2-8 hours): 6.3 µg/mL (≈ 22.5 µM)
- EC50 (HSV-1 (Kos strain); 2 h, read-out: EC50 HSV-1 (Kos strain), Treatment from 2 h till end of experiment): 0.16 µg/mL (≈ 0.571 µM)
- EC50 (HSV-1 (Kos strain); read-out: EC50 HSV-1 (Kos strain), Pretreatment (−16 hours)): 0.25 µg/mL (≈ 0.892 µM)
- EC50 (HSV-1 (Kos strain); read-out: EC50 HSV-1 (Kos strain), Treatment 2-4 hours): 1 µg/mL (≈ 3.57 µM)
- EC50 (HSV-1 (Kos strain); read-out: EC50 HSV-1 (Kos strain), Treatment 2-6 hours): 0.37 µg/mL (≈ 1.32 µM)
- EC50 (HSV-1 (Kos strain); read-out: EC50 HSV-1 (Kos strain), Treatment 2-8 hours): 0.32 µg/mL (≈ 1.14 µM)
- survival rate, HSV-1 (KOS) mice (HSV-1 (KOS)): 100%
- survival rate, HSV-2 (Lyons) model (HSV-2 (Lyons)): 100%
- survival, Cowpox virus (Brighton) mice model (Cowpox virus (Brighton) [9]): 100%
- survival, Vaccinia Virus (WR) mice model (Vaccinia Virus (WR)): 100%
- tumor size, SiHa xenografts (SiHa cells (HPV-16)): did not increase
- growth of tumors, human cervical carcinoma (FIG. 12) [10]: inhibit the growth of tumors
- activity against Herpes simplex virus-2 (G) in E6SM cell cultures [11]: significant activity
- activity against Vaccinia virus in E6SM cell cultures (Vaccinia virus [12]): significant activity
- activity against Cowpox virus (Brighton) in PHKs (Cowpox virus (Brighton) [13]): significant activity
- Toxicity MCC (microscopy), HSB-2 cells (HSB-2 cells): 16 µg/mL
- Toxicity MCC (microscopy), MOLT-3 cells (MOLT-3 cells): 16 µg/mL
- mean body weights of the mice [14]: normal pattern
- CC50 (in vitro [15]): 109 µg/mL (≈ 391 µM)
- CC50 (in vitro [16]): > 100 µg/mL
